Laboratory results reported in patent US8410161B2, “Thioxanthone ring system derivatives” (National Defense Medical Center, priority 2010, dated 2013).

Legend:
[1] = system: SK-MEL-28; assay: NCI in vitro DTP human cell line screen, SK-MEL-28; assay type: cell-based; details: Melanoma, 1.00E−5 Molar
Method: (§1) Then, a cell toxicity assay of the cancer lines made by National Cancer Institute will be discussed as follows. The cell toxicity assay is performed by choosing ten compounds (existing certification numbers) from the 59 compounds disclosed in the present invention first.

[2] = MTT assay, HEL299 fibroblast; assay type: cell-based; details: human
Source text: Please refer to FIG. 4C, various cell viabilities of the HEL299 cell lines can be obtained through the MTT assay while the compounds No. 1˜30 are used to treat HEL299 cell lines, wherein HEL299 cell lines are fibroblast.

[3] = system: EKVX; assay: NCI in vitro DTP human cell line screen, EKVX; assay type: cell-based; details: Non-Small Cell Lung Cancer, 1.00E−5 Molar
Method: as §1

[4] = system: HCT-116; assay: NCI in vitro DTP human cell line screen, HCT-116; assay type: cell-based; details: Colon Cancer, 1.00E−5 Molar
Method: as §1

[5] = system: MDA-MB-468; assay: NCI in vitro DTP human cell line screen, MDA-MB-468; assay type: cell-based; details: Breast Cancer, 1.00E−5 Molar
Method: as §1

[6] = system: CCRF-CEM; assay: NCI in vitro DTP human cell line screen, CCRF-CEM; assay type: cell-based; details: Leukemia, 1.00E−5 Molar
Method: as §1

[7] = system: NCI-H322M; assay: NCI in vitro DTP human cell line screen, NCI-H322M; assay type: cell-based; details: Non-Small Cell Lung Cancer, 1.00E−5 Molar
Method: as §1

[8] = system: SN12C; assay: NCI in vitro DTP human cell line screen, SN12C; assay type: cell-based; details: Renal Cancer, 1.00E−5 Molar
Method: as §1

[9] = system: SK-MEL-2; assay: NCI in vitro DTP human cell line screen, SK-MEL-2; assay type: cell-based; details: Melanoma, 1.00E−5 Molar
Method: as §1

[10] = system: BT-549; assay: NCI in vitro DTP human cell line screen, BT-549; assay type: cell-based; details: Breast Cancer, 1.00E−5 Molar
Method: as §1

[11] = system: PC-3; assay: NCI in vitro DTP human cell line screen, PC-3; assay type: cell-based; details: Prostate Cancer, 1.00E−5 Molar
Method: as §1

[12] = system: HS 578-T; assay: NCI in vitro DTP human cell line screen, HS 578-T; assay type: cell-based; details: Breast Cancer, 1.00E−5 Molar
Method: as §1

[13] = system: NCI-H460; assay: NCI in vitro DTP human cell line screen, NCI-H460; assay type: cell-based; details: Non-Small Cell Lung Cancer, 1.00E−5 Molar
Method: as §1

[14] = system: MDA-MB-231/ATCC; assay: NCI in vitro DTP human cell line screen, MDA-MB-231/ATCC; assay type: cell-based; details: Breast Cancer, 1.00E−5 Molar
Method: as §1

[15] = system: NCI-H522; assay: NCI in vitro DTP human cell line screen, NCI-H522; assay type: cell-based; details: Non-Small Cell Lung Cancer, 1.00E−5 Molar
Method: as §1

[16] = system: MDA-MB-435; assay: NCI in vitro DTP human cell line screen, MDA-MB-435; assay type: cell-based; details: Melanoma, 1.00E−5 Molar
Method: as §1

[17] = system: LOX IMVI; assay: NCI in vitro DTP human cell line screen, LOX IMVI; assay type: cell-based; details: Melanoma, 1.00E−5 Molar
Method: as §1

[18] = system: SNB-19; assay: NCI in vitro DTP human cell line screen, SNB-19; assay type: cell-based; details: CNS Cancer, 1.00E−5 Molar
Method: as §1

[19] = system: COLO 205; assay: NCI in vitro DTP human cell line screen, COLO 205; assay type: cell-based; details: Colon Cancer, 1.00E−5 Molar
Method: as §1

[20] = system: NCI-H226; assay: NCI in vitro DTP human cell line screen, NCI-H226; assay type: cell-based; details: Non-Small Cell Lung Cancer, 1.00E−5 Molar
Method: as §1

[21] = system: 786-0; assay: NCI in vitro DTP human cell line screen, 786-0; assay type: cell-based; details: Renal Cancer, 1.00E−5 Molar
Method: as §1

[22] = system: HCT-15; assay: NCI in vitro DTP human cell line screen, HCT-15; assay type: cell-based; details: Colon Cancer, 1.00E−5 Molar
Method: as §1

[23] = system: SF-539; assay: NCI in vitro DTP human cell line screen, SF-539; assay type: cell-based; details: CNS Cancer, 1.00E−5 Molar
Method: as §1

[24] = system: U251; assay: NCI in vitro DTP human cell line screen, U251; assay type: cell-based; details: CNS Cancer, 1.00E−5 Molar
Method: as §1

[25] = system: RXF 393; assay: NCI in vitro DTP human cell line screen, RXF 393; assay type: cell-based; details: Renal Cancer, 1.00E−5 Molar
Method: as §1

[26] = system: HOP-92; assay: NCI in vitro DTP human cell line screen, HOP-92; assay type: cell-based; details: Non-Small Cell Lung Cancer, 1.00E−5 Molar
Method: as §1

[27] = system: OVCAR-3; assay: NCI in vitro DTP human cell line screen, OVCAR-3; assay type: cell-based; details: Ovarian Cancer, 1.00E−5 Molar
Method: as §1

[28] = system: RPMI-8226; assay: NCI in vitro DTP human cell line screen, RPMI-8226; assay type: cell-based; details: Leukemia, 1.00E−5 Molar
Method: as §1

[29] = system: HCC-2998; assay: NCI in vitro DTP human cell line screen, HCC-2998; assay type: cell-based; details: Colon Cancer, 1.00E−5 Molar
Method: as §1

[30] = system: SF-295; assay: NCI in vitro DTP human cell line screen, SF-295; assay type: cell-based; details: CNS Cancer, 1.00E−5 Molar
Method: as §1

[31] = system: NCI-H23; assay: NCI in vitro DTP human cell line screen, NCI-H23; assay type: cell-based; details: Non-Small Cell Lung Cancer, 1.00E−5 Molar
Method: as §1

[32] = system: A3 cell lines; assay: MTT assay, A3 cell lines (lung cancer stem cell); assay type: cell-based
Source text: Please to FIG. 4B, various cell viabilities of the A3 cell lines can be obtained through the MTT assay and illustrated in FIG. 4B while the compounds No. 1˜30 are used to treat A3 cell lines, wherein A3 cell lines are lung cancer stem cell.

[33] = system: NCI/ADR-RES; assay: NCI in vitro DTP human cell line screen, NCI/ADR-RES; assay type: cell-based; details: Ovarian Cancer, 1.00E−5 Molar
Method: as §1

[34] = system: DU145; assay: NCI in vitro DTP human cell line screen, DU145; assay type: cell-based; details: Prostate Cancer, 1.00E−5 Molar
Method: as §1

[35] = system: M14; assay: NCI in vitro DTP human cell line screen, M14; assay type: cell-based; details: Melanoma, 1.00E−5 Molar
Method: as §1

[36] = system: K562; assay: NCI in vitro DTP human cell line screen, K562; assay type: cell-based; details: Leukemia, 1.00E−5 Molar
Method: as §1

[37] = system: 60 cancer lines; assay: NCI cell toxicity assay of 60 cancer lines, whole panel summary; assay type: cell-based, human; details: mean over all cell lines; 1.00E−5 Molar
Method: as §1

[38] = system: OVCAR-8; assay: NCI in vitro DTP human cell line screen, OVCAR-8; assay type: cell-based; details: Ovarian Cancer, 1.00E−5 Molar
Method: as §1

[39] = system: TK-10; assay: NCI in vitro DTP human cell line screen, TK-10; assay type: cell-based; details: Renal Cancer, 1.00E−5 Molar
Method: as §1

[40] = system: UACC-62; assay: NCI in vitro DTP human cell line screen, UACC-62; assay type: cell-based; details: Melanoma, 1.00E−5 Molar
Method: as §1

[41] = system: MOLT-4; assay: NCI in vitro DTP human cell line screen, MOLT-4; assay type: cell-based; details: Leukemia, 1.00E−5 Molar
Method: as §1

[42] = system: UO-31; assay: NCI in vitro DTP human cell line screen, UO-31; assay type: cell-based; details: Renal Cancer, 1.00E−5 Molar
Method: as §1

[43] = system: T-47D; assay: NCI in vitro DTP human cell line screen, T-47D; assay type: cell-based; details: Breast Cancer, 1.00E−5 Molar
Method: as §1

[44] = system: MCF7; assay: NCI in vitro DTP human cell line screen, MCF7; assay type: cell-based; details: Breast Cancer, 1.00E−5 Molar
Method: as §1

[45] = system: SK-OV-3; assay: NCI in vitro DTP human cell line screen, SK-OV-3; assay type: cell-based; details: Ovarian Cancer, 1.00E−5 Molar
Method: as §1

[46] = system: UACC-257; assay: NCI in vitro DTP human cell line screen, UACC-257; assay type: cell-based; details: Melanoma, 1.00E−5 Molar
Method: as §1

[47] = system: OVCAR-5; assay: NCI in vitro DTP human cell line screen, OVCAR-5; assay type: cell-based; details: Ovarian Cancer, 1.00E−5 Molar
Method: as §1

[48] = system: MALME-3M; assay: NCI in vitro DTP human cell line screen, MALME-3M; assay type: cell-based; details: Melanoma, 1.00E−5 Molar
Method: as §1

[49] = system: SR; assay: NCI in vitro DTP human cell line screen, SR; assay type: cell-based; details: Leukemia, 1.00E−5 Molar
Method: as §1

[50] = system: SW-620; assay: NCI in vitro DTP human cell line screen, SW-620; assay type: cell-based; details: Colon Cancer, 1.00E−5 Molar
Method: as §1

[51] = system: IGROV1; assay: NCI in vitro DTP human cell line screen, IGROV1; assay type: cell-based; details: Ovarian Cancer, 1.00E−5 Molar
Method: as §1

[52] = system: HT29; assay: NCI in vitro DTP human cell line screen, HT29; assay type: cell-based; details: Colon Cancer, 1.00E−5 Molar
Method: as §1

[53] = system: A control cell lines; assay: MTT assay, A control cell lines (lung cancer cell); assay type: cell-based
Source text: Please refer to Table 1 and FIGS. 4A-4C. According to a MTT assay (Table 1), various cell viabilities of the A control cell lines can be obtained and illustrated in FIG. 4A while the compounds No. 2˜30 are used to treat A control cell lines, wherein A control cell lines are lung cancer cell.

[54] = system: CAKI-1; assay: NCI in vitro DTP human cell line screen, CAKI-1; assay type: cell-based; details: Renal Cancer, 1.00E−5 Molar
Method: as §1

[55] = system: HL-60(TB); assay: NCI in vitro DTP human cell line screen, HL-60(TB); assay type: cell-based; details: Leukemia, 1.00E−5 Molar
Method: as §1

[56] = system: SNB-75; assay: NCI in vitro DTP human cell line screen, SNB-75; assay type: cell-based; details: CNS Cancer, 1.00E−5 Molar
Method: as §1

[57] = system: ACHN; assay: NCI in vitro DTP human cell line screen, ACHN; assay type: cell-based; details: Renal Cancer, 1.00E−5 Molar
Method: as §1

[58] = system: SF-268; assay: NCI in vitro DTP human cell line screen, SF-268; assay type: cell-based; details: CNS Cancer, 1.00E−5 Molar
Method: as §1

[59] = system: OVCAR-4; assay: NCI in vitro DTP human cell line screen, OVCAR-4; assay type: cell-based; details: Ovarian Cancer, 1.00E−5 Molar
Method: as §1

[60] = system: SK-MEL-5; assay: NCI in vitro DTP human cell line screen, SK-MEL-5; assay type: cell-based; details: Melanoma, 1.00E−5 Molar
Method: as §1

[61] = system: KM12; assay: NCI in vitro DTP human cell line screen, KM12; assay type: cell-based; details: Colon Cancer, 1.00E−5 Molar
Method: as §1

O=c1c2ccccc2sc2c(Cl)c(Sc3ccccc3)ccc12 [No. 6, 4-Chloro-3-(phenylthio)-9H-thioxanthen-9-one]
Growth Percent [1]: 113.07% | viability [2]: 107 ± 2.62% | Growth Percent [3]: 94.90% | Growth Percent [4]: 98.18% | Growth Percent [5]: 82.54% | Growth Percent [6]: 96.58% | Growth Percent [7]: 96.11% | Growth Percent [8]: 87.55% | Growth Percent [9]: 104.71% | Growth Percent [10]: 107.30% | Growth Percent [11]: 90.81% | Growth Percent [12]: 119.59% | Growth Percent [13]: 108.87% | Growth Percent [14]: 93.94% | Growth Percent [15]: 84.11% | Growth Percent [16]: 103.22% | Growth Percent [17]: 96.25% | Growth Percent [18]: 98.01% | Growth Percent [19]: 103.82% | Growth Percent [20]: 85.36% | Growth Percent [21]: 111.45% | Growth Percent [22]: 92.60% | Growth Percent [23]: 104.85% | Growth Percent [24]: 94.85% | Growth Percent [25]: 110.95% | Growth Percent [26]: 76.04% | Growth Percent [27]: 108.01% | Growth Percent [28]: 102.11% | Growth Percent [29]: 106.34% | Growth Percent [30]: 100.33% | Growth Percent [31]: 84.67% | cell viabilities of A3 cell lines (MTT assay) [32]: 103 ± 13.0% | Growth Percent [33]: 96.88% | Growth Percent [34]: 108.05% | Growth Percent [35]: 104.30% | Growth Percent [36]: 101.65% | Growth Percent, Mean [37]: 96.75% | Growth Percent [38]: 94.68% | Growth Percent [39]: 97.85% | Growth Percent [40]: 79.70% | Growth Percent [41]: 99.77% | Growth Percent [42]: 73.68% | Growth Percent [43]: 87.90% | Growth Percent [44]: 82.14% | Growth Percent [45]: 96.13% | Growth Percent [46]: 102.79% | Growth Percent [47]: 104.51% | Growth Percent [48]: 92.44% | Growth Percent [49]: 91.41% | Growth Percent [50]: 96.96% | Growth Percent [51]: 91.62% | Growth Percent [52]: 102.56% | cell viabilities of A control cell lines (MTT assay) [53]: 99.7 ± 4.76% | Growth Percent [54]: 84.00% | Growth Percent [55]: 103.53% | Growth Percent [56]: 82.75% | Growth Percent [57]: 94.03% | Growth Percent [58]: 93.39% | Growth Percent [59]: 99.56% | Growth Percent [60]: 95.50% | Growth Percent [61]: 99.82%
